According to publication PMC4666608, “Metabolic Profiling of Chicken Embryos Exposed to Perfluorooctanoic Acid (PFOA) and Agonists to Peroxisome Proliferator-Activated Receptors” (PLoS ONE, 2015):
Marks after values point to notes of the source that are not given here.

System: chicken embryos
Test: Metabolic profiling of allantoic fluid (GC-MS, LC-MS, OPLS-DA)
Assay type: in vivo, Gallus gallus domesticus
Details: 150 μg/egg
Method: Controls were injected with 20 μL vehicle only (DMSO).
Plasma was collected and stored at -70°C.
Metabolites in allantoic fluid and blood plasma were analyzed using gas chromatography-mass spectrometry (GC-MS) and liquid chromatography-mass spectrometry (LC-MS) as described in S1 Methods. Prior to GC-MS and LC-MS analysis, allantoic fluid (100 μL) and blood plasma (50 μL) were extracted. To each sample, 900 μL (allantoic fluid) or 450 μL (blood plasma) of extraction buffer (90/10 v/v methanol:water) including all internal standards were added. Standards for GC-MS were proline, succinic acid, glutamic acid, salicylic acid, alpha-ketoglutarate, putrescine, myristic acid, hexadecanoic acid, cholesterol, and sucrose. Standards for LC-MS were Val-Tyr-Val, Leu-enkephalin, sulfadimethoxine and reserpine. Samples were homogenized by shaking in a bead mill at a frequency of 30 Hz for 3 minutes and proteins were precipitated at +4°C on ice. The samples were centrifuged at +4°C, 14000 rpm, for 10 min. Then, 200 μL supernatant was transferred to a GC microvial and 200 μL was transferred to an LC microvial, and solvents were evaporated. Samples from the four replicate experiments were analyzed using in chronological order and within each replicate experiment the run order of the individual samples was randomized.
Multivariate statistical analyses of metabolite profiles were performed using the software package SIMCA-P version 13.0 (Umetrics, Umeå, Sweden). Data was centered and scaled to variance 1 (UV scaling) prior to modelling. To reduce unintended systematic variation caused by sample processing and instrument drift, GC-MS and LC-MS metabolite amounts (expressed as the area under the chromatographic peak) were normalized by Orthogonal Partial Least Squares analysis (O2PLS) prior to multivariate data analysis. O2PLS finds common (predictive) and unique (orthogonal) variation in two data matrices. If applied to find the common variation between the data matrix containing the measured metabolite concentrations and a matrix containing only the internal standards, the only common (predictive) variation expected is due to the unintended systematic variation. By deleting the contribution of the predictive latent variables, that variation can be removed from the data. Models obtained after this normalization contain in general less latent variables, and this simplification helps when deciding on the number of latent variables to be used. Following normalization, GC-MS and LC-MS data were analyzed together. Initially, a global Principal Component Analysis (PCA) was performed to get an overview of groups and trends and to identify outliers. Projections to latent structures by means of Orthogonal Partial Least Squares Discriminant Analysis (OPLS-DA) was used to model the relationship between the X-matrix (metabolite concentrations) and the Y matrix (class, i.e. exposure group or sex), and to find x-variables that were related to class belonging. OPLS-DA is a supervised prediction and regression method that rotates the projection plane to find the maximum covariance between the data and the class assignment. All groups were first analyzed together in a 5-class OPLS-DA and then each exposure group was analyzed against the control group in a 2-class OPLS-DA. Sex differences were analyzed both using the whole data set and in each group separately using 2-class OPLS-DA, with females and males as the two classes. Only variables with 80% or more nonzero values were included in the statistical models. […] The validity of each model was also checked using CV-ANOVA (ANOVA of the cross-validated residuals). A significance level of p < 0.05 was used. For each model, R ^2 X, R ^2 Y and Q ^2 values were calculated, where R ^2 X is a measure of the fraction of x variation modeled in the extracted latent variables, R ^2 Y is a measure of the fraction of y variation modeled and Q ^2 is an estimate of the predictive ability of the model and is calculated by cross-validation. […]

[1] = GC, tentative 2-Oxovaleric acid

CN(CCOc1ccc(CC2SC(=O)NC2=O)cc1)c1ccccn1 (centres unmarked) [Rosiglitazone, rosiglitazone, reference compound]
Mean concentration relative to control, feature Win004_C08 (GC): 1.2** | Mean concentration relative to control, feature Win005_C07 (GC): 1.2* | Mean concentration relative to control, feature Win008_C06 (GC): 1.7*** | Mean concentration relative to control, feature Win022_C01 (GC): 2.2*** | Mean concentration relative to control, feature Win023_C06 (GC): 1.8* | Mean concentration relative to control, feature win006_C01 (GC): 2.3*** | Mean concentration relative to control, feature Win008_C07 (GC, tentative 1-Aminocyclopropanecarboxylic acid): 1.1 | Mean concentration relative to control, feature Win023_C03 (GC, tentative 2-Oxoglutaric acid): 2.5*** | Mean concentration relative to control, feature Win007_C09 [1]: 1.3*** | Mean concentration relative to control, feature Win008_C05 [1]: 1.4*** | Mean concentration relative to control, feature Win018_C04 (GC, tentative 3-Amino-2-piperidone): 1 | Mean concentration relative to control, feature Win007_C03 (GC, tentative 3-Hydroxybutanoic acid): 1.0 | Mean concentration relative to control, feature Win042_C02 (GC, tentative Cystathionine): 1.1 | Mean concentration relative to control, feature Win009_C03 (GC, tentative Ketoleucine): 1.3** | Mean concentration relative to control, feature Win008_C04 (GC, tentative Malonic acid): 1.0 | Mean concentration relative to control, feature Win005_C03 (GC, tentative Oxalic acid): 0.7** | Mean concentration relative to control, feature Win013_C05 (GC, tentative Succinic acid): 1.1* | Mean concentration relative to control, feature 134.0239@1.1350567 (LC): 1.4* | Mean concentration relative to control, feature 145.0538@3.072527 (LC): 1.2 | Mean concentration relative to control, feature 147.0328@3.0722888 (LC): 1.2 | Mean concentration relative to control, feature 160.0323@1.1950632 (LC): 1.2*** | Mean concentration relative to control, feature 173.0488@3.0734746 (LC): 1.2 | Mean concentration relative to control, feature 176.0952@1.3890611 (LC): 0.4* | Mean concentration relative to control, feature 178.0428@1.7582192 (LC): 1.3** | Mean concentration relative to control, feature 180.0048@4.421465 (LC): 0.9*** | Mean concentration relative to control, feature 189.1159@1.9209185 (LC): 0.7** | Mean concentration relative to control, feature 197.0639@2.1181405 (LC): 1.2*** | Mean concentration relative to control, feature 201.012@3.046474 (LC): 1.1 | Mean concentration relative to control, feature 202.0429@2.9548414 (LC): 1.3*** | Mean concentration relative to control, feature 205.0533@4.421879 (LC): 0.9*** | Mean concentration relative to control, feature 214.016@2.1190732 (LC): 1.2** | Mean concentration relative to control, feature 226.0107@4.421457 (LC): 0.9*** | Mean concentration relative to control, feature 236.0816@3.0720985 (LC): 1.2 | Mean concentration relative to control, feature 241.0551@2.3510706 (LC): 1.3*** | Mean concentration relative to control, feature 243.1118@2.1537287 (LC): 0.7*** | Mean concentration relative to control, feature 244.9972@4.421603 (LC): 0.96* | Mean concentration relative to control, feature 245.1563@2.2907295 (LC): 0.7* | Mean concentration relative to control, feature 250.0981@3.072492 (LC): 1.2 | Mean concentration relative to control, feature 262.0978@2.7961144 (LC): 1.3* | Mean concentration relative to control, feature 263.0855@2.2847009 (LC): 1.4** | Mean concentration relative to control, feature 270.0441@1.1407775 (LC): 0.7* | Mean concentration relative to control, feature 278.0928@3.0723689 (LC): 1.2 | Mean concentration relative to control, feature 279.1248@2.796395 (LC): 1.4* | Mean concentration relative to control, feature 280.1425@2.730277 (LC): 1.1** | Mean concentration relative to control, feature 288.1166@2.9551322 (LC): 1.7** | Mean concentration relative to control, feature 289.1012@3.249983 (LC): 1.2 | Mean concentration relative to control, feature 289.173@7.5030584 (LC): 0.7*** | Mean concentration relative to control, feature 294.1242@2.3692534 (LC): 0.7*** | Mean concentration relative to control, feature 302.0508@3.0722616 (LC): 1.1 | Mean concentration relative to control, feature 305.1682@5.353517 (LC): 1.2 | Mean concentration relative to control, feature 305.1684@5.2955093 (LC): 1.2 | Mean concentration relative to control, feature 308.073@4.4211636 (LC): 0.9*** | Mean concentration relative to control, feature 310.1181@1.5090439 (LC): 0.7*** | Mean concentration relative to control, feature 316.0389@3.0725708 (LC): 1.2 | Mean concentration relative to control, feature 320.0626@3.0729218 (LC): 1.1 | Mean concentration relative to control, feature 325.1114@2.1190624 (LC): 1.6*** | Mean concentration relative to control, feature 325.1115@2.3554378 (LC): 1.5** | Mean concentration relative to control, feature 333.1335@2.8639288 (LC): 0.7*** | Mean concentration relative to control, feature 333.2005@6.5291867 (LC): 1.1 | Mean concentration relative to control, feature 335.1866@4.508565 (LC): 0.7*** | Mean concentration relative to control, feature 337.1651@1.8737898 (LC): 1.6*** | Mean concentration relative to control, feature 344.1424@2.348947 (LC): 1.5** | Mean concentration relative to control, feature 348.0553@3.0730357 (LC): 1.1 | Mean concentration relative to control, feature 349.1651@2.4087605 (LC): 1 | Mean concentration relative to control, feature 357.1997@6.9691257 (LC): 0.8* | Mean concentration relative to control, feature 371.1513@3.0009465 (LC): 1.4** | Mean concentration relative to control, feature 375.1819@3.672254 (LC): 0.9 | Mean concentration relative to control, feature 394.167@3.9552917 (LC): 0.7* | Mean concentration relative to control, feature 414.1482@2.118972 (LC): 1.5*** | Mean concentration relative to control, feature 466.0837@2.1187525 (LC): 1.5*** | Mean concentration relative to control, feature 488.0753@4.419585 (LC): 0.8*** | Mean concentration relative to control, feature 498.1003@2.1184251 (LC): 1.4*** | Mean concentration relative to control, feature 507.1682@2.1238236 (LC): 1.3* | Mean concentration relative to control, feature 580.1426@3.0726147 (LC): 1.3 | Mean concentration relative to control, feature 582.1578@2.1747615 (LC): 1.8*** | Mean concentration relative to control, feature 588.1751@2.1182237 (LC): 1.5*** | Mean concentration relative to control, feature 594.1337@3.0724604 (LC): 1.3 | Mean concentration relative to control, feature 604.1486@2.1174603 (LC): 1.5*** | Mean concentration relative to control, feature 623.183@2.1249466 (LC): 1.8*** | Mean concentration relative to control, feature 668.2625@6.4379454 (LC): 1.04** | Mean concentration relative to control, feature 155.0353@0.6447272 (LC, suggested C3H10NO4P): 0.4* | Mean concentration relative to control, feature 345.0497@1.1234403 (LC, suggested C10H12N5O7P): 1.6*** | Mean concentration relative to control, feature 337.0259@4.4213357 (LC, suggested C13H11N3O4S2): 0.9*** | Mean concentration relative to control, feature 344.1427@2.1164653 (LC, suggested C13H20N4O7): 1.6*** | Mean concentration relative to control, feature 331.184@6.373359 (LC, suggested C13H25N5O5): 1 | Mean concentration relative to control, feature 361.2026@5.6644735 (LC, suggested C16H31N3O4S): 0.7**
